ChEMBL document CHEMBL2440076, “New triarylpyrazoles as broad-spectrum anticancer agents: design, synthesis, and biological evaluation” (Eur J Med Chem, 2013)

Key:
Type in all cases: functional
KM12 [1] = test: Growth inhibition of human KM12 cells assessed as cell growth at 5X10'-8 M after 48 hrs by sulforhodamine B assay; settings: KM12, 48 h, read-out: Activity
MDA-MB-435 = test: Growth inhibition of human MDA-MB-435 cells assessed as cell growth at 5X10'-6 M after 48 hrs by sulforhodamine B assay; settings: MDA-MB-435, 48 h, read-out: Activity
786-0 [2] = test: Growth inhibition of human 786-0 cells assessed as cell growth at 5X10'-5 M after 48 hrs by sulforhodamine B assay; settings: 786-0, 48 h, read-out: Activity
OVCAR-4 [3] = test: Growth inhibition of human OVCAR4 cells assessed as cell growth at 5X10'-7 M after 48 hrs by sulforhodamine B assay; settings: OVCAR-4, 48 h, read-out: Activity
IGROV-1 = test: Growth inhibition of human IGROV1 cells assessed as cell growth at 5X10'-8 M after 48 hrs by sulforhodamine B assay; settings: IGROV-1, 48 h, read-out: Activity
HCT-116 = test: Growth inhibition of human HCT116 cells assessed as cell growth at 5X10'-5 M after 48 hrs by sulforhodamine B assay; settings: HCT-116, 48 h, read-out: Activity
SK-OV-3 = test: Growth inhibition of human SKOV3 cells assessed as cell growth at 5X10'-9 M after 48 hrs by sulforhodamine B assay; settings: SK-OV-3, 48 h, read-out: Activity
RPMI-8226 = test: Growth inhibition of human RPMI8226 cells assessed as cell growth at 5X10'-9 M after 48 hrs by sulforhodamine B assay; settings: RPMI-8226, 48 h, read-out: Activity
SK-MEL-2 [4] = test: Growth inhibition of human SK-MEL-2 cells assessed as cell growth at 5X10'-5 M after 48 hrs by sulforhodamine B assay; settings: SK-MEL-2, 48 h, read-out: Activity
SF-539 [5] = test: Growth inhibition of human SF539 cells assessed as cell growth at 5X10'-5 M after 48 hrs by sulforhodamine B assay; settings: SF-539, 48 h, read-out: Activity
HOP-92 [6] = test: Growth inhibition of human HOP92 cells assessed as cell growth at 5X10'-6 M after 48 hrs by sulforhodamine B assay; settings: HOP-92, 48 h, read-out: Activity
RXF 393 [7] = test: Growth inhibition of human RXF393 cells assessed as cell growth at 5X10'-5 M after 48 hrs by sulforhodamine B assay; settings: RXF 393, 48 h, read-out: Activity
786-0 [8] = test: Growth inhibition of human 786-0 cells assessed as cell growth at 5X10'-8 M after 48 hrs by sulforhodamine B assay; settings: 786-0, 48 h, read-out: Activity
OVCAR-3 = test: Growth inhibition of human OVCAR3 cells assessed as cell growth at 5X10'-5 M after 48 hrs by sulforhodamine B assay; settings: OVCAR-3, 48 h, read-out: Activity
A498 [9] = test: Growth inhibition of human A498 cells assessed as cell growth at 5X10'-9 M after 48 hrs by sulforhodamine B assay; settings: A498, 48 h, read-out: Activity
MCF7 = test: Growth inhibition of human MCF7 cells assessed as cell growth at 5X10'-5 M after 48 hrs by sulforhodamine B assay; settings: MCF7, 48 h, read-out: Activity
MDA-MB-468 [10] = test: Growth inhibition of human MDA-MB-468 cells assessed as cell growth at 5X10'-5 M after 48 hrs by sulforhodamine B assay; settings: MDA-MB-468, 48 h, read-out: Activity
NCI-H23 = test: Growth inhibition of human NCI-H23 cells assessed as cell growth at 5X10'-5 M after 48 hrs by sulforhodamine B assay; settings: NCI-H23, 48 h, read-out: Activity
OVCAR-4 [11] = test: Growth inhibition of human OVCAR4 cells assessed as cell growth at 5X10'-8 M after 48 hrs by sulforhodamine B assay; settings: OVCAR-4, 48 h, read-out: Activity
SR [12] = test: Growth inhibition of human SR cells assessed as cell growth at 5X10'-6 M after 48 hrs by sulforhodamine B assay; settings: read-out: Activity
MDA-MB-468 [13] = test: Growth inhibition of human MDA-MB-468 cells assessed as cell growth at 5X10'-7 M after 48 hrs by sulforhodamine B assay; settings: MDA-MB-468, 48 h, read-out: Activity
A498 [14] = test: Growth inhibition of human A498 cells assessed as cell growth at 5X10'-8 M after 48 hrs by sulforhodamine B assay; settings: A498, 48 h, read-out: Activity
SK-MEL-2 [15] = test: Growth inhibition of human SK-MEL-2 cells assessed as cell growth at 5X10'-7 M after 48 hrs by sulforhodamine B assay; settings: SK-MEL-2, 48 h, read-out: Activity
SR [16] = test: Growth inhibition of human SR cells assessed as cell growth at 5X10'-5 M after 48 hrs by sulforhodamine B assay; settings: read-out: Activity
NCI-H460 = test: Growth inhibition of human NCI-H460 cells assessed as cell growth at 5X10'-9 M after 48 hrs by sulforhodamine B assay; settings: NCI-H460, 48 h, read-out: Activity
SF-539 [17] = test: Growth inhibition of human SF539 cells assessed as cell growth at 5X10'-6 M after 48 hrs by sulforhodamine B assay; settings: SF-539, 48 h, read-out: Activity
SW-620 [18] = test: Growth inhibition of human SW620 cells assessed as cell growth at 5X10'-9 M after 48 hrs by sulforhodamine B assay; settings: SW-620, 48 h, read-out: Activity
M14 = test: Growth inhibition of human M14 cells assessed as cell growth at 5X10'-8 M after 48 hrs by sulforhodamine B assay; settings: M14, 48 h, read-out: Activity
KM12 [19] = test: Growth inhibition of human KM12 cells assessed as cell growth at 5X10'-5 M after 48 hrs by sulforhodamine B assay; settings: KM12, 48 h, read-out: Activity
ACHN = test: Growth inhibition of human ACHN cells assessed as cell growth at 5X10'-9 M after 48 hrs by sulforhodamine B assay; settings: read-out: Activity
SW-620 [20] = test: Growth inhibition of human SW620 cells assessed as cell growth at 5X10'-8 M after 48 hrs by sulforhodamine B assay; settings: SW-620, 48 h, read-out: Activity
OVCAR-4 [21] = test: Growth inhibition of human OVCAR4 cells assessed as cell growth at 5X10'-5 M after 48 hrs by sulforhodamine B assay; settings: OVCAR-4, 48 h, read-out: Activity
RXF 393 [22] = test: Growth inhibition of human RXF393 cells assessed as cell growth at 5X10'-7 M after 48 hrs by sulforhodamine B assay; settings: RXF 393, 48 h, read-out: Activity
COLO 205 = test: Growth inhibition of human COLO205 cells assessed as cell growth at 5X10'-8 M after 48 hrs by sulforhodamine B assay; settings: COLO 205, 48 h, read-out: Activity
SNB-75 = test: Growth inhibition of human SNB75 cells assessed as cell growth at 5X10'-8 M after 48 hrs by sulforhodamine B assay; settings: SNB-75, 48 h, read-out: Activity
HOP-62 = test: Growth inhibition of human HOP62 cells assessed as cell growth at 5X10'-7 M after 48 hrs by sulforhodamine B assay; settings: HOP-62, 48 h, read-out: Activity
HOP-92 [23] = test: Growth inhibition of human HOP92 cells assessed as cell growth at 5X10'-8 M after 48 hrs by sulforhodamine B assay; settings: HOP-92, 48 h, read-out: Activity
SR [24] = test: Growth inhibition of human SR cells assessed as cell growth at 5X10'-9 M after 48 hrs by sulforhodamine B assay; settings: read-out: Activity

## COc1cc(-c2nn(-c3cccc(NC(=O)Nc4cccc(C(F)(F)F)c4)c3)cc2-c2ccncc2)ccc1Cl
KM12 [1]
  growth at 0.05 µM: 97%
MDA-MB-435
  growth at 5 µM: -47%
786-0 [2]
  growth at 50 µM: -22%
OVCAR-4 [3]
  growth at 0.5 µM: 73%
IGROV-1
  growth at 0.05 µM: 96%
HCT-116
  growth at 50 µM: -16%
SK-OV-3
  growth at 0.005 µM: 100%
RPMI-8226
  growth at 0.005 µM: 98%
SK-MEL-2 [4]
  growth at 50 µM: -85%
SF-539 [5]
  growth at 50 µM: -58%
HOP-92 [6]
  growth at 5 µM: -45%
RXF 393 [7]
  growth at 50 µM: -53%
786-0 [8]
  growth at 0.05 µM: 95%
OVCAR-3
  growth at 50 µM: -54%
A498 [9]
  growth at 0.005 µM: 92%
MCF7
  growth at 50 µM: -8%
MDA-MB-468 [10]
  growth at 50 µM: -44%
NCI-H23
  growth at 50 µM: -37%
OVCAR-4 [11]
  growth at 0.05 µM: 96%
SR [12]
  growth at 5 µM: -24%
MDA-MB-468 [13]
  growth at 0.5 µM: 57%
A498 [14]
  growth at 0.05 µM: 87%
SK-MEL-2 [15]
  growth at 0.5 µM: 97%
SR [16]
  growth at 50 µM: -16%
NCI-H460
  growth at 0.005 µM: 100%
SF-539 [17]
  growth at 5 µM: -36%
SW-620 [18]
  growth at 0.005 µM: 98%
M14
  growth at 0.05 µM: 97%
KM12 [19]
  growth at 50 µM: -47%
ACHN
  growth at 0.005 µM: 104%
SW-620 [20]
  growth at 0.05 µM: 94%
OVCAR-4 [21]
  growth at 50 µM: -3%
RXF 393 [22]
  growth at 0.5 µM: 74%
COLO 205
  growth at 0.05 µM: 98%
SNB-75
  growth at 0.05 µM: 95%
HOP-62
  growth at 0.5 µM: 94%
HOP-92 [23]
  growth at 0.05 µM: 90%
SR [24]
  growth at 0.005 µM: 93%
